Patent US20220056018A1, “SREBP INHIBITORS COMPRISING A THIOPHENE CENTRAL RING” (Capulus Therapeutics, LLC, priority 2019, published 2022)

What was measured:
SREBP = experiment: Reporter Screening Assay (SRE-luciferase reporter, HepG2); format: cell-based; settings: Homo sapiens; SRE-luciferase reporter HepG2 cells, 24 hours, 0.01 uM to 10 uM; read-out: I: Reporter Screening Assay (Ave EC50 (nM))
Method: Reporter Screening Assay: This assay was used to evaluate the effect on transcriptional activity SREBP of selected compounds using an SRE-luciferase reporter construct. On day 1, 10,000 cells were seeded in a 96 well (white) plate as per the plate map in Growth media without antibiotics. Cells were incubated at 37° C. for 8 hours. After 8 hours, cells were washed with DPBS for complete removal of FBS. DPBS was completely removed and Growth media was replaced with phenol free treatment medium (90 μl) with different FBS concentrations. The cells were then incubated at 37° C. for 24 hours with varying doses (0.01 uM to 10 uM) of compounds. Then a Luciferase assay was performed.
Reagents for performing Luciferase assay were stored at −20° C. To a tube of lyophilized assay substrate was added 1 mL Substrate Solvent and mixed well. The Substrate tube after reconstitution was covered with aluminum foil so as to keep it protected from light. The assay buffer was thawed to room temperature. To 20 mL Assay Buffer was added 200 μL of reconstituted 100× Substrate and mixed well. The reconstituted substrate as well as the assay solution (buffer+substrate) was protected from light throughout the procedure by keeping it covered with aluminum foil. Using a multi-channel pipette, 100 μL Assay Solution (buffer+substrate) was added directly to each sample well in Plate 1, which was incubated for 30 min (plate was covered with aluminum foil). After 30 min incubation, the plate was read for total luminescence. Each well was read for 2 seconds in a plate luminometer. (Microplate reader Envision Microplate reader from Perkin Elmer). Precaution was taken to incubate plate exactly for 30 min prior to reading on the plate reader.
SREBPv1 Reporter cell line: HepG2—#32251. Growth Medium: MEM (Corning 10-010), 10% FBS, 1% GlutaMax (Invitrogen Catalog #35050061), […] (Invitrogen Catalog # A1113803) and 1% Penicillin-Streptomycin (Pen-Strep). Treatment Media: Phenol-free MEM (Invitrogen Catalog #51200-038) and 1% GlutaMax (Invitrogen Catalog #35050061). Luciferase Assay: LightSwitch Luciferase Assay Kit (Catalog #32032). LDH assay: Pierce LDH Cytotoxicity Assay Kit (Catalog # SD249616).

[1] = Stability in mouse liver microsomes; format: in vitro ADME
Method: (§1) Compounds were evaluated for stability in human liver microsomes. A 10 mM stock solution of the compound being evaluated was prepared in DMSO and diluted with water:acetonitrile (1:1) to a concentration of 1 mM. A working concentration of 100 μM was prepared by further dilution with water:acetonitrile (1:1). To make the preincubation mixture, 2.5 μL of the diluted compound was combined with 75 μL of human liver microsomes at 3.33 mg/mL, and 85 μL of 100 mM potassium phosphate buffer, and this mixture was pre-incubated for 10 min at 37° C. To make the 60 minute mixture without cofactor, 32.5 μL of the preincubation mixture was combined with 17.5 μL of 100 mM potassium phosphate buffer and incubated for 60 min at 37° C. To make the 0 min sample with cofactor (NADPH), 16.25 μL of the preincubation mixture was combined with 200 μL of acetonitrile containing internal standard and 8.75 μL of cofactor (NADPH). To make the incubation mixture, 62 μL of cofactor (2.85 mM) was combined with the remaining incubation mixture, and incubated for 60 min at 37° C. To prepare the sample mixture to be evaluated, 25 μL incubation mixture was combined with 200 μL of acetonitrile containing internal standard and vortexed for 5 min at 1200 rpm, then centrifuged for 10 min at 4000 rpm. The supernatant was diluted 2 fold with water and injected on LC-MS/MS. The sample mixture was evaluated by LC-MS/MS using 10 mM ammonium acetate with 0.100 FA as the aqueous mobile phase, and methanol as the organic mobile phase.
Half-Life Mouse Microsomes:
Compounds were evaluated in mouse liver microsomes following a similar procedure as described above for human liver microsomes. A similar procedure could be used to evaluate compounds in rat liver microsomes.

[2] = Stability in human liver microsomes; format: in vitro ADME; settings: 37° C., NADPH
Method: Half-Life Human Microsomes:
as §1

EC50 (SREBP) [nM] | percent parent remaining after 60 min in liver microsomes [1] | percent of compound remaining after 60 min in human liver microsomes [2] | SMILES
< 249 | +++ (>60.1 = +++) | +++ (>60.1 = +++) | CC(C)OC(=O)Nc1ccc(-c2cc(-c3ccnc(C4(CO)CC4)c3)cs2)c(Cl)c1 [Compound I-8980, Isopropyl (3-chloro-4-(4-(2-(1-(hydroxymethyl)cyclopropyl)pyridin-4-yl)thiophen-2-yl)phenyl)carbamate]
< 249 | +++ (>60.1 = +++) | +++ (>60.1 = +++) | CC(C)OC(=O)Nc1ccc(-c2cc(-c3ccnc(C4CC4)c3)cs2)c(Cl)c1 [Compound I-8966, Isopropyl (3-chloro-4-(4-(2-cyclopropylpyridin-4-yl)thiophen-2-yl)phenyl)carbamate]
> 500 | +++ (>60.1 = +++) | +++ (>60.1 = +++) | CC(C)(C#N)c1cc(-c2csc(-c3ccc(NS(C)(=O)=O)cc3Cl)c2)ccn1 [Compound I-9039, N-(3-chloro-4-(4-(2-(2-cyanopropan-2-yl)pyridin-4-yl)thiophen-2-yl)phenyl)methanesulfonamide]
250 to 500 | +++ (>60.1 = +++) | ++ (30.1-60 = ++) | CC(C)S(=O)(=O)c1ccc(-c2cc(-c3ccnc(C(C)(C)C)c3)cs2)cc1 [Compound I-8728, 2-(tert-butyl)-4-(5-(4-(isopropylsulfonyl)phenyl)thiophen-3-yl)pyridine]
< 249 | +++ (>60.1 = +++) | ++ (30.1-60 = ++) | CN(C(=O)OC1CC1)c1ccc(-c2cc(-c3ccnc(C4(CO)CC4)c3)cs2)c(Cl)c1 [Compound I-9042, Cyclopropyl (3-chloro-4-(4-(2-(1-(hydroxymethyl)cyclopropyl)pyridin-4-yl)thiophen-2-yl)phenyl)(methyl)carbamate]
250 to 500 | +++ (>60.1 = +++) | ++ (30.1-60 = ++) | CC(C)(CO)c1cc(-c2csc(-c3ccc(N4CCOC4=O)cc3Cl)c2)ccn1 [Compound I-8939, 3-(3-chloro-4-(4-(2-(1-hydroxy-2-methylpropan-2-yl)pyridin-4-yl)thiophen-2-yl)phenyl)oxazolidin-2-one]
> 500 | +++ (>60.1 = +++) | +++ (>60.1 = +++) | CC(C)(C)c1cc(-c2csc(-c3ccc(S(C)(=O)=O)cc3)c2)ccn1 [Compound I-8723, 2-(tert-butyl)-4-(5-(4-(methylsulfonyl)phenyl)thiophen-3-yl)pyridine]
> 500 | ++ (30.1-60 = ++) | +++ (>60.1 = +++) | O=C(Nc1ccc(-c2cc(-c3ccnc(C4(CO)CC4)c3)cs2)c(Cl)c1)OC1CC1 [Compound I-9082, cyclopropyl (3-chloro-4-(4-(2-(1-(hydroxymethyl)cyclopropyl)pyridin-4-yl)thiophen-2-yl)phenyl)carbamate]
> 500 | + (0-30 = +) | + (0-30 = +) | CC(C)(C)c1cc(-c2csc(-c3ccc(S(=O)(=O)CC4CCCC4)cc3)c2)ccn1 [Compound I-8729, 2-(tert-butyl)-4-(5-(4-((cyclopentylmethyl)sulfonyl)phenyl)thiophen-3-yl)pyridine]
< 249 | +++ (>60.1 = +++) | +++ (>60.1 = +++) | CN(C(=O)OC1CC1)c1ccc(-c2cc(-c3ccnc(C4CC4)c3)cs2)c(Cl)c1 [Compound I-9038, cyclopropyl (3-chloro-4-(4-(2-cyclopropylpyridin-4-yl)thiophen-2-yl)phenyl)(methyl)carbamate]
> 500 | + (0-30 = +) | +++ (>60.1 = +++) | CC(C)(C)c1cc(-c2csc(-c3ccc(NC(=O)OCCN4CCCC4)cc3Cl)c2)ccn1 [Compound I-8762, 2-(pyrrolidin-1-yl)ethyl (4-(4-(2-(tert-butyl)pyridin-4-yl)thiophen-2-yl)-3-chlorophenyl)carbamate]
< 249 | +++ (>60.1 = +++) | +++ (>60.1 = +++) | CC(C)(O)c1cc(-c2csc(-c3ccc(NS(C)(=O)=O)cc3Cl)c2)ccn1 [Compound I-9064, N-(3-chloro-4-(4-(2-(2-hydroxypropan-2-yl)pyridin-4-yl)thiophen-2-yl)phenyl)methanesulfonamide]
< 249 | +++ (>60.1 = +++) | ++ (30.1-60 = ++) | CN(c1ccc(-c2cc(-c3ccnc(C4(CO)CC4)c3)cs2)c(Cl)c1)S(C)(=O)=O [Compound I-9056, N-(3-chloro-4-(4-(2-(1-(hydroxymethyl)cyclopropyl)pyridin-4-yl)thiophen-2-yl)phenyl)-N-methylmethanesulfonamide]
> 500 | +++ (>60.1 = +++) | +++ (>60.1 = +++) | CC(C)(CN)c1cc(-c2csc(-c3ccc(NS(C)(=O)=O)cc3Cl)c2)ccn1 [Compound I-9049, N-(4-(4-(2-(1-amino-2-methylpropan-2-yl)pyridin-4-yl)thiophen-2-yl)-3-chlorophenyl)methanesulfonamide]
< 249 | +++ (>60.1 = +++) | ++ (30.1-60 = ++) | CC(C)(CO)c1cc(-c2csc(-c3ccc(NC(=O)N4CCC(O)CC4)cc3Cl)c2)ccn1 [Compound I-8926, N-(3-chloro-4-(4-(2-(1-hydroxy-2-methylpropan-2-yl)pyridin-4-yl)thiophen-2-yl)phenyl)-4-hydroxypiperidine-1-carboxamide]
< 249 | +++ (>60.1 = +++) | +++ (>60.1 = +++) | CC(C)OC(=O)Nc1ccc(-c2cc(-c3ccnc(OC4CC4)c3)cs2)c(Cl)c1 [Compound I-9060, isopropyl (3-chloro-4-(4-(2-cyclopropoxypyridin-4-yl)thiophen-2-yl)phenyl)carbamate]
> 500 | +++ (>60.1 = +++) | +++ (>60.1 = +++) | CC(O)(CO)c1cc(-c2csc(-c3ccc(NS(C)(=O)=O)cc3Cl)c2)ccn1 (stereo not drawn) [Compound I-9088, N-(3-chloro-4-(4-(2-(1,2-dihydroxypropan-2-yl)pyridin-4-yl)thiophen-2-yl)phenyl)methanesulfonamide]
> 500 | +++ (>60.1 = +++) | +++ (>60.1 = +++) | CC(C)(C)c1cc(-c2csc(-c3ccc(NC(=O)NC4CCC(O)CC4)cc3Cl)c2)ccn1 (stereo not drawn) [Compound I-8742, 1-(4-(4-(2-(tert-butyl)pyridin-4-yl)thiophen-2-yl)-3-chlorophenyl)-3-(4-hydroxycyclohexyl)urea]
